In US11186575B2, “Treatment of helicobacter pylori infections” (Albert Einstein College of Medicine, Inc., priority 2012, dated 2021):
Read-outs that look alike come from different tables or passages of the source.

Assays:
HpMTAN = target: T1, HpMTAN (Helicobacter pylori, UniProt Q9ZMY2); experiment: Kinetics of HpMTAN with substrates, direct assay (absorbance at 274 nm); format: biochemical; conditions: substrate of purified HpMTAN
T1 construct: His6 (N); made in house; host or cells: E. coli BL21 (DE3)
T1 sequence (Q9ZMY2 1-230): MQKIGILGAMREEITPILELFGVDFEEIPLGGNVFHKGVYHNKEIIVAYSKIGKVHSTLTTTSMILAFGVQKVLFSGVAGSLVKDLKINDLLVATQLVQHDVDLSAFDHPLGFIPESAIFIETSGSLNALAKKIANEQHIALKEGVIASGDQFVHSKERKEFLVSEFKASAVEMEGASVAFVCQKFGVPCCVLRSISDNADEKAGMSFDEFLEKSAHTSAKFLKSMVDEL
Procedure: (§1) Kinetics of HpMTAN were determined using a direct assay involving absorbance decrease at 274 nm continuously as a consequence of formation of free adenine from 5′-methylthioadenosine. The Ki and Ki* values of BuT-DADMe-ImmA (30) were determined using coupled assays, in which xanthine oxidase was used as the coupling enzyme and absorbance increase was followed at 292 nm as the product adenine is converted to 2,8-dihydroxyadenine. Both assays have been previously described
BuT-DADMe-ImmA (30) was previously characterized as a transition state analogue inhibitor of EcMTAN (FIG. 1C)^8. Here, inhibition assays were performed using BuT-DADMe-ImmA against recombinant HpMTAN with 5′-methylthioadenosine as substrate. Purified HpMTAN uses both 5′-methylthioadenosine and 6-amino-6-deoxyfutalosine as facile substrates. […] The low Kd value supports the proposal that BuT-DADMe-ImmA is a transition state analogue inhibitor for HpMTAN. […] The nitrogen of the hydroxypyrrolidine moiety has a pKa value of 9, and thus mimics the positive charge of a ribocation at the transition state. The methylene bridge extends the distance between the sugar and the purine base leaving group, as this distance is near 3 Å at the transition state. […]

H. pylori MTAN [1] = target: T2, H. pylori MTAN (Helicobacter pylori, UniProt Q9ZMY2); experiment: Ki determination: inhibition of recombinant HpMTAN, xanthine oxidase coupled assay, 5′-methylthioadenosine as substrate; format: biochemical
T2 construct: His6 (N); made in house; host or cells: E. coli BL21 (DE3)
T2 sequence (Q9ZMY2 1-230): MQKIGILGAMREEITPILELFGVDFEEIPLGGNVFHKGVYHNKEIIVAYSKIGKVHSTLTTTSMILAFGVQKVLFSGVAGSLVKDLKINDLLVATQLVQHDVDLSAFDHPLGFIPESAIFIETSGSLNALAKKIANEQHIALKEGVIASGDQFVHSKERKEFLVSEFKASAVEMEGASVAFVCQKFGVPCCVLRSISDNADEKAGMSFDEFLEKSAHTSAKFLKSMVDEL
Procedure: The purification procedure of HpMTAN was described previously^10. Briefly, BL21 (DE3) cells harboring a plasmid encoding HpMTAN with an N-terminal His6-tag were grown to an optical density of 0.7 measured at 595 nm and IPTG was introduced to a final concentration of 0.5 mM. After another 15 h at 22° C., cells were collected by centrifugation. The pellet was suspended and later disrupted by pressure cell and sonication. The soluble portion was applied to a Ni-NTA column and HpMTAN was eluted with an imidazole concentration gradient of 200 to 500 mM. The protein was desalted using a Superdex G15 gel-filtration column then equilibrated and concentrated in 10 mM Hepes, 30 mM KCl, pH 7.6. The purity was confirmed by SDS-PAGE.
as §1
(§2) BuT-DADMe-ImmA (30) was previously characterized as a transition state analogue inhibitor of EcMTAN (FIG. 1C)^8. Here, inhibition assays were performed using BuT-DADMe-ImmA against recombinant HpMTAN with 5′-methylthioadenosine as substrate. Purified HpMTAN uses both 5′-methylthioadenosine and 6-amino-6-deoxyfutalosine as facile substrates. […] The low Kd value supports the proposal that BuT-DADMe-ImmA is a transition state analogue inhibitor for HpMTAN. […] The nitrogen of the hydroxypyrrolidine moiety has a pKa value of 9, and thus mimics the positive charge of a ribocation at the transition state. The methylene bridge extends the distance between the sugar and the purine base leaving group, as this distance is near 3 Å at the transition state. The 9-deazaadenine alters conjugation in the purine ring, causing an elevated pKa and protonation of N7, resembling the N7-protonated adenine leaving group at the transition state.

H. pylori [2] = experiment: H. pylori growth on tryptic soy agar with 5% horse blood (MIC); format: cell-based, Helicobacter pylori; conditions: for MIC90: Helicobacter pylori
Procedure: (§3) H. pylori were grown for 72 hours under microaerophilic condition (5% O2, 10% CO2 and 85% N2) at 37° C. on tryptic soy agar with 5% horse blood. To determine the MIC values, the test substance was added to the gel solution right before pouring. To compare the zones of inhibition, specific antibiotics were added to the center of disc after spreading H. pylori, and then H. pylori was allowed to grow for 72 hours under microaerophilic condition at 37° C.
The effects of BuT-DADMe-ImmA (30) were tested on H. pylori growing on 5% horse blood agar. At 6 ng/ml, slight growth was detected and at 8 ng/ml, no growth was detected, therefore the MIC90 value for inhibition of H. pylori growth is <8 ng/ml (FIG. 3A).

H. pylori [3] = experiment: Zone of inhibition (disc) on H. pylori; format: cell-based, Helicobacter pylori; conditions: for zones of inhibition, comparison of antibiotics: equivalent amounts (10 ng or 20 ng per disc)
Procedure: FIG. 3A-3B: The effects of BuT-DADMe-ImmA (30) on H. pylori growth. A. The effects of increasing the concentration of BuT-DADMe-ImmA (ng/ml) on growth on blood agar. B. The inhibitory effects of BuT-DADMe-ImmA are compared with amoxicillin, metronidazole and tetracyclin in zone of inhibition studies. Drug concentrations were: 0 (top disc), 10 ng (middle disc) or 20 ng (bottom disc). Each specified antibiotic was applied to the disc in the same manner.
as §3
Commonly used antibiotics in H. pylori infections include amoxicillin, metronidazole and tetracycline. The anti-H. pylori effects of BuT-DADMe-ImmA (30) were compared to those antibiotics in common use. […] Thus, BuT-DADMe-ImmA is more efficient at inhibition of H. pylori growth than commonly used antibiotics.

K. pneumoniae = experiment: Growth of K. pneumoniae on MacConkey agar; format: cell-based; conditions: culture concentrations to 5 μg/ml, 24 hours
Procedure: (§4) At the desired concentration of the test substance BuT-DADMe-ImmA (30), K pneumoniae, S. flexneri and S. enterica were grown on MacConkey agar at 37° C. for 24 hours, and S. aureus and P. aeruginosa were grown on LB agar at 37° C. for 24 hours.
(§5) In most bacteria, MTANs are expressed and catalyze the hydrolysis of the N-ribosidic bonds of 5′-methylthioadenosine and S-adenosylhomocysteine. The two reactions are involved in bacterial quorum sensing, sulfur recycling via S-adenosylmethionine and polyamine synthesis^16; however, most bacterial MTANs are not essential for bacterial proliferation as judged by planktonic growth conditions. […] The effects BuT-DADMe-ImmA were also tested on the growth for additional clinically common pathogens, S. aureus, K pneumoniae, S. flexneri, S. enterica and P. aeruginosa. […] Because of the inhibitor specificity for this rare menaquinone pathway, treatment of H. pylori infections with BuT-DADMe-ImmA would be unlikely to generate antibiotic resistance in off-target bacterial species.

S. flexneri = experiment: Growth of S. flexneri on MacConkey agar; format: cell-based; conditions: culture concentrations to 5 μg/ml, 24 hours
Procedure: as §4, §5

S. enterica = experiment: Growth of S. enterica on MacConkey agar; format: cell-based; conditions: culture concentrations to 5 μg/ml, 24 hours
Procedure: as §4, §5

S. aureus = experiment: Growth of S. aureus on LB agar; format: cell-based; conditions: culture concentrations to 5 μg/ml, 24 hours
Procedure: as §4, §5

P. aeruginosa = experiment: Growth of P. aeruginosa on LB agar; format: cell-based; conditions: culture concentrations to 5 μg/ml, 24 hours
Procedure: as §4, §5

H. pylori MTAN [4] = target: T2, H. pylori MTAN; conditions: Table 3, cited from earlier work
E. coli = conditions: reference 6; cited from earlier work
V. cholerae = conditions: reference 6; cited from earlier work
MTAN [5] = target: T3, MTAN (Escherichia coli, UniProt P0AF12); conditions: reference 6; cited from earlier work
T3 construct: host or cells: E. coli cells

MTAN [6] = target: T4, MTAN (Vibrio cholerae serotype O1, UniProt Q9KPI8); conditions: reference 6; cited from earlier work
T4 construct: host or cells: V. cholerae cells

[7] = stated without a test; cited from earlier work
[8] = substrate: CC(O)[C@H]1O[C@@H](n2cnc3c(N)ncnc32)[C@H](S)[C@@H]1O; experiment: Kinetics of HpMTAN with substrates, direct assay (absorbance at 274 nm); format: biochemical, Helicobacter pylori; conditions: other: substrate of purified HpMTAN
Procedure: as §1, §2

T3 sequence (P0AF12 whole entry): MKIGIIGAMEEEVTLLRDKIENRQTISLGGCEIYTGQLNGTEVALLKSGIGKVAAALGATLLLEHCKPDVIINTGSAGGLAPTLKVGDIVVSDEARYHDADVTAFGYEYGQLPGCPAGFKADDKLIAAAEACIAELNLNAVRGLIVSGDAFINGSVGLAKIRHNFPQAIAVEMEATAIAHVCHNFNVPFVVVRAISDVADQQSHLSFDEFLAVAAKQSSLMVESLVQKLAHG
T4 sequence (Q9KPI8 whole entry): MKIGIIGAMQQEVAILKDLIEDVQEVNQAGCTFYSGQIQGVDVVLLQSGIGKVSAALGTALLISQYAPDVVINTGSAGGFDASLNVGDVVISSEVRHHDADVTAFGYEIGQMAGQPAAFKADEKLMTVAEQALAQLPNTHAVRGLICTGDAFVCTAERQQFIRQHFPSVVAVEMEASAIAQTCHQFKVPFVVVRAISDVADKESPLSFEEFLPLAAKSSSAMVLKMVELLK

Question: With `Nc1ncnc2c1ncn2[C@@H]1O[C@H](CCC(=O)c2cccc(C(=O)O)c2)[C@@H](O)[C@H]1O` [6-amino-6-deoxyfutalosine] as the molecule, how does the Km (HpMTAN) read?
Answer: 0.8 ± 0.3 µM

Question: What about the kcat (HpMTAN; in 1/s) of the same molecule?
Answer: 4.3±0.9

Question: For `CCCCSC[C@H]1CN(Cc2c[nH]c3c(N)ncnc23)C[C@@H]1O` [Compound 30, (3R,4S)-4-(1-butylthiomethyl)-1-[(9-deaza-adenin-9-yl)-methyl]-3-hydroxypyrrolidine], which Ki (H. pylori MTAN [1]; 5′-methylthioadenosine as substrate, read-out: initial inhibition constant (Ki)) is on record?
Answer: 0.8 nM

Question: And the Km/Kd ratio (H. pylori MTAN [1]; Km 0.8 μM for 6-amino-6-deoxyfutalosine as substrate)?
Answer: 22,200

Question: And the Kd (H. pylori MTAN [1]; following slow-onset of inhibition, read-out: equilibrium dissociation constant (Ki*=Kd))?
Answer: 0.036 nM

Question: And the MIC90 (H. pylori [2]; 5% horse blood agar, read-out: MIC90 value for inhibition of H. pylori growth)?
Answer: < 8 ng/mL

Question: And the MIC90 (H. pylori [2]; Table 3, agar plate, 72 hours, microaerophilic, read-out: Inhibition of H. pylori growth MIC90)?
Answer: 6 to 8 ng/mL

Question: And the MIC90 (H. pylori [2]; corresponds to MIC90 of 8 ng/ml, read-out: MIC90 as chemical concentration)?
Answer: 0.023 µM

Question: What about the H. pylori growth (H. pylori [2]; at 6 ng/ml, 5% horse blood agar) of the same molecule?
Answer: slight growth

Question: And the H. pylori growth (H. pylori [2]; at 8 ng/ml, 5% horse blood agar)?
Answer: no growth

Question: And the zones of clearance (H. pylori [3]; 10 ng on disc)?
Answer: Small zones of clearance

Question: And the zones of clearance (H. pylori [3]; 20 ng on disc)?
Answer: large zones

Question: And the “zones of inhibition, comparison of antibiotics” value (H. pylori [3])?
Answer: greater than those for any of the other antibiotics

Question: And the “growth inhibition of K. pneumoniae” value (K. pneumoniae)?
Answer: no growth inhibition

Question: What about the “growth inhibition of S. flexneri” value (S. flexneri) of the same molecule?
Answer: no growth inhibition

Question: What about the “growth inhibition of S. enterica” value (S. enterica) of the same molecule?
Answer: no growth inhibition

Question: And the “growth inhibition of S. aureus” value (S. aureus)?
Answer: no growth inhibition

Question: And the “growth inhibition of P. aeruginosa” value (P. aeruginosa)?
Answer: no growth inhibition

Question: What about the Ki (H. pylori MTAN [4]; value from Reference 10, read-out: Inhibition of H. pylori MTAN Ki*) of the same molecule?
Answer: 0.036 ± 0.002 nM

Question: What about the Ki (H. pylori MTAN [4]; value marked (Reference 10), read-out: Inhibition of H. pylori MTAN Ki) of the same molecule?
Answer: 0.79 ± 0.04 nM

Question: And the “effect on growth of E. coli” value (E. coli)?
Answer: did not affect the growth

Question: What about the “effect on growth of V. cholerae” value (V. cholerae) of the same molecule?
Answer: did not affect the growth

Question: What about the “MTAN activity in E. coli” value (MTAN [5]) of the same molecule?
Answer: totally abolished

Question: And the “MTAN activity in V. cholerae” value (MTAN [6])?
Answer: totally abolished

Question: And the “pKa value of the nitrogen of the hydroxypyrrolidine moiety” value [7]?
Answer: 9

Question: With `CC1(C)S[C@@H]2[C@H](NC(=O)[C@H](N)c3ccc(O)cc3)C(=O)N2[C@H]1C(=O)O` [amoxicillin, reference compound] as the molecule, how does the “zones of inhibition, comparison of antibiotics” value (H. pylori [3]) read?
Answer: smaller zone of growth inhibition than BuT-DADMe-ImmA

B1: HpMTAN (Helicobacter pylori J99) (protein)
chain: MQKIGILGAMREEITPILELFGVDFEEIPLGGNVFHKGVYHNKEIIVAYSKIGKVHSTLTTTSMILAFGVQKVLFSGVAGSLVKDLKINDLLVATQLVQHDVDLSAFDHPLGFIPESAIFIETSGSLNALAKKIANEQHIALKEGVIASGDQFVHSKERKEFLVSEFKASAVEMEGASVAFVCQKFGVPCCVLRSISDNADEKAGMSFDEFLEKSAHTSAKFLKSMVDEL
notes: His6 (N); made in house; host or cells: E. coli BL21 (DE3)
Question: With B1 as the molecule, how does the Km [8] read?
Answer: 0.6 ± 0.3 µM

Question: And the kcat [8]?
Answer: 12.1 s⁻¹

Question: What about the kcat/Km [8] of the same molecule?
Answer: 2e+07 M⁻¹ s⁻¹
